Reference: patent EP2790511B1 (Merck Sharp & Dohme Corp., priority 2011, dated 2013)

The compounds below were run against T1, hROMK (hKir1.1) (Homo sapiens, UniProt P48048) (assay: Thallium Flux Assay). Settings: HEK293 cells stably expressing hROMK (hKir1.1), FLIPR-Tetra; read-out: Thallium Flux IC50.
T1 construct: expressed in transfected cells
T1 sequence (P48048 1-391): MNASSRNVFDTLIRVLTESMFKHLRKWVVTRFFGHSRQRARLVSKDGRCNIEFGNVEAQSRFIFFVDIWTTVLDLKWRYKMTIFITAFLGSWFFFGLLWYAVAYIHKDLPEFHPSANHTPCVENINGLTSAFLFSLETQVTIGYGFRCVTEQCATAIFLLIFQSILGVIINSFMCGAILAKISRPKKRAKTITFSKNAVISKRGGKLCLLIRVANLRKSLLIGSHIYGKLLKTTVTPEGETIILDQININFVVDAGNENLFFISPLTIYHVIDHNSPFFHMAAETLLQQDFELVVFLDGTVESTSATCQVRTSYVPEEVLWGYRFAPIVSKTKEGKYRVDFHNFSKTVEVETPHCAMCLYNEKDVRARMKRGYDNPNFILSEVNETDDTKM
Type: cell-based
Method in brief: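 HEK293 cells stably expressing hROMK, loaded with FluxOR dye 90 min at ambient temperature, then compound 30 min with 0.3 mM ouabain in probenecid buffer pH 7.4.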
Work on `Cc1c([C@H]2CN3CCN(C(=O)Cc4ccc(-n5cnnn5)nc4)C[C@H]3CS2)ccc2c1COC2=O` [Example 167, 4-methyl-5-[(3S,9aS)-8-{[6-(1H-tetrazol-1-yl)pyridin-3-yl]acetyl}octahydropyrazino[2,1-c][1,4]thiazin-3-yl]-2-benzofuran-1(3H)-one] yielded an IC50 of 420 nM. In the case of `COc1cc(F)c([C@@H]2CN3CCN(C(=O)Cc4cnc(-n5cnnn5)nc4)C[C@H]3CO2)cc1C#N` [Example 168, 4-fluoro-2-methoxy-5-[(3R,9aS)-8-{[2-(1H-tetrazol-1-yl)pyrimidin-5-yl]acetyl}octahydropyrazino[2,1-c][1,4]oxazin-3-yl]benzonitrile], the IC50 is reported as 350 nM. `Cc1cc([C@H]2CN3CCN(C(=O)Cc4ccc(-n5cnnn5)nc4)C[C@@H]3CO2)c(C)c(C#N)c1F` [Example 173, 2-fluoro-3,6-dimethyl-5-[(3S,9aR)-8-{[6-(1H-tetrazol-1-vl)pvridin-3-yl]acetyl}octahydropyrazino[2,1-c][1,4]oxazin-3-yl]benzonitrile] was tested, and the IC50 was 300 nM. Work on `Cc1cc([C@@H]2CN3CCN(C(=O)Cc4ccc(-n5cnnn5)nc4)C[C@@H]3CO2)c(C)c(C#N)c1F` [Example 174, 2-fluoro-3,6-dimethyl-5-[(3R,9aR)-8-{[6-(1H-tetrazol-1-vl)pvridin-3-yl]acetyl}octahydropyrazino[2,1-c][1,4]oxazin-3-yl]benzonitrile] yielded an IC50 of 350 nM. Work on `O=C(Cc1cnc(-n2cnnn2)nc1)N1CCN2C[C@@H](c3ccc4nonc4c3)OC[C@@H]2C1` [Example 175, (3R,9aS)-3-(2,1,3-benzoxadiazol-5-yl)-8-{[2-(1H-tetrazol-1-vl)pvrimidin-5-yl]acetyl}octahydropyrazino[2,1-c][1,4]oxazine] yielded an IC50 of 530 nM. `Cc1c([C@H]2CN3CCN(C(=O)Cc4ccc(-n5cnnn5)nc4)C[C@H]3CO2)ccc2nonc12` [Example 176, (3S,9aS)-3-(4-methyl-2,1,3-benzoxadiazol-5-yl)-8-{[6-(1H-tetrazol-1-yl)pyridin-3-yl]acetyl}octahydropyrazino[2,1-c][1,4]oxazine] gave an IC50 of 200 nM. `Cc1c([C@@H]2CN3CCN(C(=O)Cc4ccc(-n5cnnn5)nc4)C[C@H]3CO2)ccc2nonc12` [Example 177, (3R,9aS)-3-(4-methyl-2,1,3-benzoxadiazol-5-yl)-8-{[6-(1H-tetrazol-1-yl)pyridin-3-yl]acetyl}octahydropyrazino[2,1-c][1,4]oxazine] showed an IC50 of 250 nM. With `O=C(Cc1ccc(-n2cnnn2)cn1)N1CCN2C[C@@H](c3ccc4nonc4c3)OC[C@@H]2C1` [Example 178, (3R,9aS)-3-(2,1,3-benzoxadiazol-5-yl)-8-{[5-(1H-tetrazol-1-vl)pvridin-2-yl]acetyl}octahydropyrazino[2,1-c][1,4]oxazine] the IC50 was 350 nM. For `Cc1c([C@H]2CN3CCN(C(=O)Cc4ccc(-n5cnnn5)nc4)C[C@H]3CS2)ccc(F)c1C#N` [Example 185, 6-fluoro-2-methyl-3-[(3S,9aS)-8-{[6-(1H-tetrazol-1-yl)pyridin-3-yl]acetyl}octahydropyrazino[2,1-c][1,4]thiazin-3-yl]benzonitrile], the IC50 was 180 nM. In the case of `Cc1c([C@H]2CN3CCN(C(=O)Cc4ccc(-n5cnnn5)cn4)C[C@H]3CS2)ccc(F)c1C#N` [Example 186], the IC50 is reported as 270 nM. In the case of `Cc1c([C@H]2CN3CCN(C(=O)C(F)(F)c4cnc(-n5cnnn5)nc4)C[C@H]3CO2)ccc(F)c1C#N` [Example 188, 3-((3S,9aS)-8-(2-(2-(1H-tetrazol-1-yl)pyrimidin-5-yl)-2,2-difluoroacetyl)octahydropyrazino[2,1-c][1,4]oxazin-3-yl)-6-fluoro-2-methylbenzonitrile], the IC50 is reported as 350 nM. `Cc1c([C@H]2CN3CCN(C(=O)Cc4cnc(-n5cnnn5)nc4)C[C@H]3CN2)ccc(F)c1C#N` [Example 189, 3-((3S,9aR)-8-(2-(2-(1H-tetrazol-1-yl)pyrimidin-5-yl)acetyl)octahydro-1H-pyrazino[1,2-a]pyrazin-3-yl)-6-fluoro-2-methylbenzonitrile] showed an IC50 of 120 nM. Compound `Cc1c([C@H]2CN3CCN(C(=O)Cc4ccc(-n5cnnn5)nc4)C[C@H]3CN2)ccc2c1COC2=O` [Example 190, 4-methyl-5-[(3S,9aR)-8-{[6-(1H-tetrazol-1-yl)pyridin-3-yl]acetyl}octahydro-2H-pyrazino[1,2-a]pyrazin-3-yl]-2-benzofuran-1(3H)-one] has an IC50 of 390 nM. In the case of `Cc1c([C@H]2CN3CCN(C(=O)Cc4ccc(-n5cnnn5)cn4)C[C@H]3CN2)ccc(F)c1C#N` [Example 191, 6-fluoro-2-methyl-3-[(3S,9aR)-8-{[5-(1H-tetrazol-1-yl)pyridin-2-yl]acetyl}octahydro-2H-pyrazino[1,2-a]pyrazin-3-yl]benzonitrile], the IC50 is reported as 120 nM. Compound `Cc1c([C@@H]2CN3CCN(C(=O)Cc4ccc(-n5cnnn5)cn4)C[C@H]3CN2)ccc(F)c1C#N` [Example 195, 6-fluoro-2-methyl-3-[(3R,9aR)-8-{[5-(1H-tetrazol-1-yl)pyridin-2-yl]acetyl}octahydro-2H-pyrazino[1,2-a]pyrazin-3-yl]benzonitrile] has an IC50 of 250 nM.

Same assay, conditions: Thallium Flux IC50
`O=C(Cc1ccc(-n2cnnn2)nc1)N1CCN2C[C@@H](c3ccc4nonc4c3)OC[C@@H]2C1` [Example 179, (3R,9aS)-3-(2,1,3-benzoxadiazol-5-yl)-8-{[6-(1H-tetrazol-1-vl)pvridin-3-yl]acetyl}octahydropyrazino[2,1-c][1,4]oxazine] was tested, and the IC50 was 180 nM. `O=C(Cc1ccc(-n2cnnn2)nc1)N1CCN2C[C@H](c3ccc4nonc4c3)OC[C@@H]2C1` [Example 180, (3S,9aS)-3-(2,1,3-benzoxadiazol-5-yl)-8-{[6-(1H-tetrazol-1-vl)pvridin-3-yl]acetyl}octahydropyrazino[2,1-c][1,4]oxazine] gave an IC50 of 590 nM. `N#Cc1c(F)ccc([C@H]2CN3CCN(C(=O)Cc4ccc(-n5cnnn5)nc4)C[C@H]3CO2)c1C1CC1` [Example 181, 2-cyclopropyl-6-fluoro-3-[(3S,9aS)-8-{[6-(1H-tetrazol-1-vl)pvridin-3-yl]acetyl}octahydropyrazino[2,1-c][1,4]oxazin-3-yl]benzonitrile] gave an IC50 of 380 nM. Compound `Cc1c([C@H]2CN3CCN(C(=O)Cc4ccc(-n5cnnn5)nc4)C[C@H]3CS2(=O)=O)ccc(F)c1C#N` [Example 187, 3-[(3S,9aS)-2,2-dioxido-8-{[6-(1H-tetrazol-1-yl)pyridin-3-yl]acetyl}octahydropyrazino[2,1-c][1,4]thiazin-3-yl]-6-fluoro-2-methylbenzonitrile] has an IC50 of 280 nM. `Cc1c([C@H]2CN3CCN(C(=O)Cc4ccc(-n5cnnn5)nc4)C[C@H]3CN2)ccc(F)c1C#N` [Example 192, 6-fluoro-2-methyl-3-[(3S,9aR)-8-{[6-(1H-tetrazol-1-yl)pyridin-3-yl]acetyl}octahydro-2H-pyrazino[1,2-a]pyrazin-3-yl]benzonitrile] was tested, and the IC50 was 70 nM. `Cc1c([C@@H]2CN3CCN(C(=O)Cc4cnc(-n5cnnn5)nc4)C[C@H]3CN2)ccc(F)c1C#N` [Example 193, 6-fluoro-2-methyl-3-[(3R,9aR)-8-{[2-(1H-tetrazol-1-yl)pyrimidin-5-yl]acetyl}octahydro-2H-pyrazino[1,2-a]pyrazin-3-yl]benzonitrile] was tested, and the IC50 was 100 nM.
